Reference: ChEMBL document CHEMBL1201862, “PubChem BioAssay data set” (2004)
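Tested at 5 concentrations; 48 h exposure; 96-well plates; endpoints linearly interpolated, else capped at highest concentration. At the GI50, growth is halved.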 The source made the active and inactive calls. Rule as the data show it: active = GI50 up to about 1.1 µM and inactive = higher.

How the values were obtained:
Assay in all cases: NCI tumour cell line growth inhibition, 48 h
Malme-3M = system: Malme-3M
U-251 = system: U-251
786-0 = system: 786-0
NCI-H522 = system: NCI-H522
OVCAR-5 = system: OVCAR-5
SNB-75 = system: SNB-75
ACHN = system: ACHN
K562 = system: K562
HCT-15 = system: HCT-15
CCRF-CEM = system: CCRF-CEM
HL-60 = system: HL-60
CAKI-1 = system: CAKI-1
HCT-116 = system: HCT-116
SW-620 = system: SW-620
HOP-62 = system: HOP-62
BT-549 = system: BT-549
UO-31 = system: UO-31
NCI-H23 = system: NCI-H23
OVCAR-8 = system: OVCAR-8
T47D = system: T47D
HOP-92 = system: HOP-92
Hs-578T = system: Hs-578T
HCC 2998 = system: HCC 2998
NCI/ADR-RES = system: NCI/ADR-RES
SF-539 = system: SF-539
SK-MEL-5 = system: SK-MEL-5
SF-295 = system: SF-295
MCF7 = system: MCF7
SK-OV-3 = system: SK-OV-3
EKVX = system: EKVX
SK-MEL-2 = system: SK-MEL-2
MDA-MB-435 = system: MDA-MB-435
IGROV-1 = system: IGROV-1
MDA-MB-231 = system: MDA-MB-231
NCI-H460 = system: NCI-H460
A498 = system: A498
SNB-19 = system: SNB-19
MOLT-4 = system: MOLT-4
RXF 393 = system: RXF 393
TK-10 = system: TK-10
KM12 = system: KM12
SF-268 = system: SF-268
A549 = system: A549
COLO 205 = system: COLO 205
OVCAR-3 = system: OVCAR-3
MDA-N = system: MDA-N
PC-3 = system: PC-3
UACC-62 = system: UACC-62
DU-145 = system: DU-145
RPMI-8226 = system: RPMI-8226
UACC-257 = system: UACC-257
SN12C = system: SN12C
OVCAR-4 = system: OVCAR-4
HT-29 = system: HT-29
NCI-H226 = system: NCI-H226
LOX IMVI = system: LOX IMVI
SR = system: SR
M14 = system: M14
SK-MEL-28 = system: SK-MEL-28

SMILES: COC(=O)C1(Cc2ccc3c(c2)CCC3)Cc2cc3c(cc2C1=O)CCC3 (stereo not drawn)
- GI50 (Malme-3M): 41.5 µM (inactive)
- GI50 (U-251): 29.4 µM (inactive)
- GI50 (786-0): > 46.5 µM (inactive)
- GI50 (NCI-H522): 8.85 µM (inactive)
- GI50 (OVCAR-5): > 46.5 µM (inactive)
- GI50 (SNB-75): 42.2 µM (inactive)
- GI50 (ACHN): 37.2 µM (inactive)
- GI50 (K562): 8.93 µM (inactive)
- GI50 (HCT-15): 26.5 µM
- GI50 (CCRF-CEM): 17.7 µM (inactive)
- GI50 (HL-60): 6.67 µM (inactive)
- GI50 (CAKI-1): 6.73 µM (inactive)
- GI50 (HCT-116): 11.4 µM (inactive)
- GI50 (SW-620): 16.9 µM (inactive)
- GI50 (HOP-62): > 46.5 µM (inactive)
- GI50 (BT-549): 7.96 µM (inactive)
- GI50 (UO-31): 16 µM (inactive)
- GI50 (NCI-H23): 22 µM (inactive)
- GI50 (OVCAR-8): 27.2 µM (inactive)
- GI50 (T47D): 10.8 µM (inactive)
- GI50 (HOP-92): 7.74 µM (inactive)
- GI50 (Hs-578T): 33 µM (inactive)
- GI50 (HCC 2998): 22.1 µM (inactive)
- GI50 (NCI/ADR-RES): 13.4 µM (inactive)
- GI50 (SF-539): > 46.5 µM (inactive)
- GI50 (SK-MEL-5): 14.3 µM (inactive)
- GI50 (SF-295): 35.6 µM (inactive)
- GI50 (MCF7): 21.4 µM (inactive)
- GI50 (SK-OV-3): > 46.5 µM (inactive)
- GI50 (EKVX): 21.3 µM (inactive)
- GI50 (SK-MEL-2): 17.1 µM (inactive)
- GI50 (MDA-MB-435): 13.3 µM (inactive)
- GI50 (IGROV-1): 24.4 µM (inactive)
- GI50 (MDA-MB-231): 24.6 µM (inactive)
- GI50 (NCI-H460): 15.3 µM (inactive)
- GI50 (A498): 10.7 µM (inactive)
- GI50 (SNB-19): 31.2 µM (inactive)
- GI50 (MOLT-4): 16.5 µM (inactive)
- GI50 (RXF 393): 29.4 µM (inactive)
- GI50 (TK-10): > 46.5 µM (inactive)
- GI50 (KM12): 18 µM (inactive)
- GI50 (SF-268): > 46.5 µM (inactive)
- GI50 (A549): 18.2 µM (inactive)
- GI50 (COLO 205): 15.4 µM (inactive)
- GI50 (OVCAR-3): 44.6 µM (inactive)
- GI50 (MDA-N): 13 µM (inactive)
- GI50 (PC-3): 17.9 µM (inactive)
- GI50 (UACC-62): 37 µM (inactive)
- GI50 (DU-145): 44.4 µM (inactive)
- GI50 (RPMI-8226): 8.02 µM (inactive)
- GI50 (UACC-257): 16.4 µM (inactive)
- GI50 (SN12C): 26.9 µM (inactive)
- GI50 (OVCAR-4): 18.7 µM (inactive)
- GI50 (HT-29): 20.3 µM (inactive)
- GI50 (NCI-H226): 39.2 µM (inactive)
- GI50 (LOX IMVI): 25.1 µM (inactive)
- GI50 (SR): 11.4 µM (inactive)
- GI50 (M14): 20.8 µM (inactive)
- GI50 (SK-MEL-28): 37.2 µM (inactive)

SMILES: N#CCCCC[N+]12CN3CN(CN(C3)C1)C2
- GI50 (Malme-3M): > 100 µM (inactive)
- GI50 (U-251): > 100 µM (inactive)
- GI50 (786-0): > 100 µM (inactive)
- GI50 (NCI-H522): > 100 µM (inactive)
- GI50 (OVCAR-5): > 100 µM (inactive)
- GI50 (SNB-75): > 100 µM (inactive)
- GI50 (ACHN): > 100 µM (inactive)
- GI50 (K562): > 100 µM (inactive)
- GI50 (HCT-15): > 100 µM
- GI50 (CCRF-CEM): 64 µM (inactive)
- GI50 (HL-60): > 100 µM (inactive)
- GI50 (CAKI-1): > 100 µM (inactive)
- GI50 (HCT-116): > 100 µM (inactive)
- GI50 (SW-620): 64.6 µM (inactive)
- GI50 (HOP-62): > 100 µM (inactive)
- GI50 (BT-549): > 100 µM (inactive)
- GI50 (UO-31): > 100 µM (inactive)
- GI50 (NCI-H23): > 100 µM (inactive)
- GI50 (OVCAR-8): > 100 µM (inactive)
- GI50 (T47D): > 100 µM (inactive)
- GI50 (HOP-92): > 100 µM (inactive)
- GI50 (Hs-578T): > 100 µM (inactive)
- GI50 (HCC 2998): > 100 µM (inactive)
- GI50 (NCI/ADR-RES): > 100 µM (inactive)
- GI50 (SF-539): 22.6 µM (inactive)
- GI50 (SK-MEL-5): > 100 µM (inactive)
- GI50 (SF-295): > 100 µM (inactive)
- GI50 (MCF7): 45.7 µM (inactive)
- GI50 (SK-OV-3): > 100 µM (inactive)
- GI50 (EKVX): > 100 µM (inactive)
- GI50 (SK-MEL-2): > 100 µM (inactive)
- GI50 (MDA-MB-435): > 100 µM (inactive)
- GI50 (IGROV-1): > 100 µM (inactive)
- GI50 (MDA-MB-231): > 100 µM (inactive)
- GI50 (NCI-H460): > 100 µM (inactive)
- GI50 (A498): > 100 µM (inactive)
- GI50 (SNB-19): > 100 µM (inactive)
- GI50 (MOLT-4): > 100 µM (inactive)
- GI50 (RXF 393): > 100 µM (inactive)
- GI50 (TK-10): > 100 µM (inactive)
- GI50 (KM12): > 100 µM (inactive)
- GI50 (SF-268): > 100 µM (inactive)
- GI50 (A549): > 100 µM (inactive)
- GI50 (COLO 205): > 100 µM (inactive)
- GI50 (OVCAR-3): > 100 µM (inactive)
- GI50 (MDA-N): > 100 µM (inactive)
- GI50 (PC-3): > 100 µM (inactive)
- GI50 (UACC-62): > 100 µM (inactive)
- GI50 (DU-145): > 100 µM (inactive)
- GI50 (RPMI-8226): 40.8 µM (inactive)
- GI50 (UACC-257): > 100 µM (inactive)
- GI50 (SN12C): > 100 µM (inactive)
- GI50 (OVCAR-4): > 100 µM (inactive)
- GI50 (HT-29): > 100 µM (inactive)
- GI50 (NCI-H226): > 100 µM (inactive)
- GI50 (LOX IMVI): 32.1 µM (inactive)
- GI50 (SR): 30.8 µM (inactive)
- GI50 (M14): > 100 µM (inactive)
- GI50 (SK-MEL-28): > 100 µM (inactive)
